Assays:
chicken embryos = tested on: chicken embryos; parameters: method as in Zhang et al., 2021; settings: ref Zhang et al., 2021, cited from earlier work; for Mortality rate: chicken embryos, 50 μg/kg dosage
MCF-7 cells = assay: MCF-7 cell proliferation assay (estrogenic activity); format: cell-based; settings: 10 and 100 nM, p < 0.05, positive control
Procedure: MCF-7 cells were grown and maintained as previously described ([Peng et al., 2018]). The EA of creosote, creosote-soy BCFA, and iso-oleic acid was investigated at 10 nM to 1 μM. We evaluated EA for newly synthesized phenolic soy BCFAs with a focus on those who have both good performances in antimicrobial activity and low developmental toxicity in the chicken embryo model. Chemicals were dissolved in DMSO and diluted to the test concentrations (0.1% DMSO). No treatment and VC (0.1% DMSO in cell medium) were included as controls. Fresh medium with test compounds was added on day 2 and refreshed every 2 days. After 6-day exposure, cell numbers were measured by MTT assay using a microplate spectrophotometer ([Peng et al., 2018]). The test was repeated in two independent trials with triplicates for each trial, and cell proliferation rates were calculated for each compound.
(§1) All data were reported as the mean ± standard deviation (SD) of at least two independent trials. The MCF-7 cell proliferation rates of each compound at different concentrations were compared using a one-way analysis of variance (ANOVA) followed by Dunnett’s test with the statistical software JMP 16.0. The developmental indexes (REEW, LSI, weights) and TBARS values obtained from chicken embryonic assays were evaluated by a one-way ANOVA followed by Dunnett’s test performed with JMP.

[1] = tested on: estrogen signaling pathway; settings: cited from earlier work
chicken embryo = assay: Chicken embryonic assay (developmental toxicity, liver TBARS); format: in vivo; settings: for LSI (%) (liver somatic index) / REEW (ratio of embryo to egg weight) / Weights (g) Embryo / Weights (g) Heart / Weights (g) Liver: mean ± SD
Procedure: In total, 124 fertilized Leghorn eggs were obtained from the University of Delaware research farm. […] On day 6, the eggs were candled, and a hole was drilled for injection of each chemical at two dosage levels, or VC at 0.2 mL. The hole was sealed with Duco Cement, and eggs were placed back in the egg incubator at 38°C and 60% relative humidity. Each test was repeated in two independent trials. The incubation ended on day 18, and the number of dead embryos was recorded during the incubation period. All embryos were dissected and evaluated for deformation, embryo mass, liver mass, heart mass, ratio of embryo to egg weight (REEW), liver somatic index (LSI), and TBARS levels as described in ([Zhang and Wu, 2022]). Each test was repeated in two independent trials and in duplicate for each trial.
as §1
The developmental toxicity of phenolic-soy BCFAs was evaluated at dosages reported for natural phenolics via a chicken embryo model ([Zhang et al., 2021]; [Zhang and Wu, 2022]). In the present study, 0.1% DMSO in PBS was used as VC.

human fibroblast (WS-1) = tested on: human fibroblast (WS-1); parameters: method as in Günes-Bayir et al., 2018; settings: dose-dependent manner at 0–100 µM; ref Günes-Bayir et al., 2018; cited from earlier work
[2] = tested on: gastric adenocarcinoma cells; parameters: method as in Günes-Bayir et al., 2018; settings: dose-dependent manner at 0–100 µM; ref Günes-Bayir et al., 2018; cited from earlier work
[3] = chicken embryo day 18, dosage 3.1 μg/kg
[4] = chicken embryo day 18, dosage 31 μg/kg
[5] = chicken embryo day 18, egg injection day 6, dosage 3.1 μg/kg
[6] = chicken embryo day 18, egg injection day 6, dosage 31 μg/kg
[7] = chicken embryo day 18, egg injection day 6, dosage 31 μg/kg, listed as phenol

Cc1ccc(C(C)C)c(O)c1 [Thymol]
Mortality rate (chicken embryos): no death was found

C[C@]12CC[C@@H]3c4ccc(O)cc4CC[C@H]3[C@@H]1CC[C@@H]2O [E2, 17β-Estradiol]
Cell proliferation rate compared with no treatment and VC (MCF-7 cells): significantly increased cell proliferation rates
Concentration of highest EA ([1]; across the test range from 10^–15 to 10^–4 M, ref Peng et al., 2018): 10 nM
Concentration of peak EA ([1]; our previous findings, ref not given): 10^−9 M

Oc1ccccc1 [Phenol]
LSI (%) (liver somatic index) (chicken embryo; [3]): 2.20 ± 0.25%
REEW (ratio of embryo to egg weight) (chicken embryo; [3]): 0.39 ± 0.014
Weights (g) Embryo (chicken embryo; [3]): 23.61 ± 2.74 g
Weights (g) Heart (chicken embryo; [3]): 0.21 ± 0.03 g
Weights (g) Liver (chicken embryo; [3]): 0.52 ± 0.12 g
LSI (%) (liver somatic index) (chicken embryo; [4]): 2.23 ± 0.23%
REEW (ratio of embryo to egg weight) (chicken embryo; [4]): 0.36 ± 0.029
Weights (g) Embryo (chicken embryo; [4]): 22.04 ± 2.54 g
Weights (g) Heart (chicken embryo; [4]): 0.22 ± 0.01 g
Weights (g) Liver (chicken embryo; [4]): 0.52 ± 0.04 g
Malformation rate (%) (chicken embryo; [5]): 0.0 (0) %
Mortality rate (%) (chicken embryo; [5]): 0.0 (0) %
Mortality rate (%) (chicken embryo; chicken embryo day 18, egg injection day 6, dosage 3.1 μg/kg, listed as phenol): no mortality
Malformation rate (%) (chicken embryo; [6]): 12.5 (1) %
Mortality rate (%) (chicken embryo; [6]): 0.0 (0) %
Malformation rate (%) (chicken embryo; [7]): deformed embryos (stunting) were observed
Mortality rate (%) (chicken embryo; [7]): no mortality

Cc1ccc(C(C)C)cc1O [Carvacrol]
TBARS levels in fetal chicken liver (chicken embryos; 50 μg/kg): significantly increased TBARS levels
Mortality rate (chicken embryos): 45.5%
Estrogenic activity (EA) ([1]; at 10^–12 M, ref Zhang et al., 2021): weak EA
Reactive oxygen species generation (human fibroblast (WS-1)): induced reactive oxygen species generation
Reactive oxygen species generation [2]: induced reactive oxygen species generation
